Measurements taken from ChEMBL document CHEMBL1157124, “Synthesis and anticancer evaluation of alpha-lipoic acid derivatives” (Bioorg Med Chem Lett, 2010).
Calls of active or inactive are those of the source. The calls are words filed in the database; no cut-off is given here.

Legend:
Bel-7402 [1] = assay: Cytotoxicity against human Bel7402 cells assessed as growth inhibition at 100 ug/ml after 24 hrs by MTT assay; type: functional; settings: Bel-7402, 24 h, read-out: GI
Bel-7402 [2] = assay: Cytotoxicity against human Bel7402 cells assessed as growth inhibition at 10 ug/ml after 24 hrs by MTT assay; type: functional; settings: Bel-7402, 24 h, read-out: GI
NCI-H460 [3] = assay: Cytotoxicity against human NCI-H460 cells assessed as growth inhibition at 0.1 ug/ml after 24 hrs by MTT assay; type: functional; settings: NCI-H460, 24 h, read-out: GI
PC-3 [4] = assay: Cytotoxicity against human PC3 cells assessed as growth inhibition at 0.1 ug/ml after 24 hrs by MTT assay; type: functional; settings: for inhibition of growth at 0.1 µg/mL: PC-3, 24 h, read-out: GI
[5] = Cytotoxicity against human HO8910 cells assessed as growth inhibition at 1 ug/ml after 24 hrs by MTT assay; type: functional; settings: HO-8910, 24 h, read-out: GI
KB [6] = assay: Cytotoxicity against human KB cells assessed as growth inhibition at 10 ug/ml after 24 hrs by MTT assay; type: functional; settings: read-out: GI
KB [7] = assay: Cytotoxicity against human KB cells assessed as growth inhibition at 100 ug/ml after 24 hrs by MTT assay; type: functional; settings: read-out: GI
PC-3 [8] = assay: Cytotoxicity against human PC3 cells assessed as growth inhibition at 10 ug/ml after 24 hrs by MTT assay; type: functional; settings: PC-3, 24 h, read-out: GI
NCI-H460 [9] = assay: Cytotoxicity against human NCI-H460 cells assessed as growth inhibition at 100 ug/ml after 24 hrs by MTT assay; type: functional; settings: NCI-H460, 24 h, read-out: GI
PC-3 [10] = assay: Cytotoxicity against human PC3 cells assessed as growth inhibition at 1 ug/ml after 24 hrs by MTT assay; type: functional; settings: PC-3, 24 h, read-out: GI
NCI-H460 [11] = assay: Cytotoxicity against human NCI-H460 cells assessed as growth inhibition at 1 ug/ml after 24 hrs by MTT assay; type: functional; settings: NCI-H460, 24 h, read-out: GI
KB [12] = assay: Cytotoxicity against human KB cells assessed as growth inhibition at 1 ug/ml after 24 hrs by MTT assay; type: functional; settings: read-out: GI
[13] = Cytotoxicity against human HO8910 cells assessed as growth inhibition at 10 ug/ml after 24 hrs by MTT assay; type: functional; settings: HO-8910, 24 h, read-out: GI
[14] = Cytotoxicity against human HO8910 cells assessed as growth inhibition at 0.1 ug/ml after 24 hrs by MTT assay; type: functional; settings: HO-8910, 24 h, read-out: GI
NCI-H460 [15] = assay: Cytotoxicity against human NCI-H460 cells assessed as growth inhibition at 10 ug/ml after 24 hrs by MTT assay; type: functional; settings: NCI-H460, 24 h, read-out: GI
KB [16] = assay: Cytotoxicity against human KB cells assessed as growth inhibition at 0.1 ug/ml after 24 hrs by MTT assay; type: functional; settings: read-out: GI
[17] = Cytotoxicity against human HO8910 cells assessed as growth inhibition at 100 ug/ml after 24 hrs by MTT assay; type: functional; settings: HO-8910, 24 h, read-out: GI
Bel-7402 [18] = assay: Cytotoxicity against human Bel7402 cells assessed as growth inhibition at 1 ug/ml after 24 hrs by MTT assay; type: functional; settings: Bel-7402, 24 h, read-out: GI
PC-3 [19] = assay: Cytotoxicity against human PC3 cells assessed as growth inhibition at 100 ug/ml after 24 hrs by MTT assay; type: functional; settings: PC-3, 24 h, read-out: GI
Bel-7402 [20] = assay: Cytotoxicity against human Bel7402 cells assessed as growth inhibition at 0.1 ug/ml after 24 hrs by MTT assay; type: functional; settings: Bel-7402, 24 h, read-out: GI
HT-29 = assay: Induction of apoptosis in human HT-29 cells; type: functional, cell-based
SCC-9 = assay: Growth inhibition of human SCC9 cells at 10 uM; type: functional
SCC-25 = assay: Growth inhibition of human SCC25 cells at 10 uM; type: functional
[21] = Growth inhibition of human Detroit 562 cells at 10 uM; type: functional
FaDu = assay: Growth inhibition of human FADU cells at 10 uM; type: functional
[22] = Toxicity in rat; type: organism-based; settings: in vivo
SMMC-7721 = assay: Induction of apoptosis in human SMMC7721 cells at 5 mM after 96 hrs; type: functional
DU-145 = assay: Cytotoxicity against human DU145 cells; type: functional, cell-based

Compound | inhibition of growth at 100 µg/mL (Bel-7402 [1]) [%] | inhibition of growth at 10 µg/mL (Bel-7402 [2]) [%] | inhibition of growth at 0.1 µg/mL (NCI-H460 [3]) [%] | inhibition of growth at 0.1 µg/mL (PC-3 [4]) [%] | inhibition of growth at 1 µg/mL [5] [%] | inhibition of growth at 10 µg/mL (KB [6]) [%] | inhibition of growth at 100 µg/mL (KB [7]) [%] | inhibition of growth at 10 µg/mL (PC-3 [8]) [%] | inhibition of growth at 100 µg/mL (NCI-H460 [9]) [%] | inhibition of growth at 1 µg/mL (PC-3 [10]) [%] | inhibition of growth at 1 µg/mL (NCI-H460 [11]) [%] | inhibition of growth at 1 µg/mL (KB [12]) [%] | inhibition of growth at 10 µg/mL [13] [%] | inhibition of growth at 0.1 µg/mL [14] [%] | inhibition of growth at 10 µg/mL (NCI-H460 [15]) [%] | inhibition of growth at 0.1 µg/mL (KB [16]) [%] | inhibition of growth at 100 µg/mL [17] [%] | inhibition of growth at 1 µg/mL (Bel-7402 [18]) [%] | inhibition of growth at 100 µg/mL (PC-3 [19]) [%] | other results
O=C(CCCCC1CCSS1)Nc1ccc(OC(F)(F)F)cc1 (stereo unspecified) | 78.4 | 1.24 | 7.05 | 6.69 | 10 | 8.49 | 90.1 | 38.2 | 83 | 10.8 | 12.2 | 1.54 | 8.57 | 5.53 | 20.3 | 1.97 | 84.5 | 0.29 | 88.5 | 
O=C(CCCCC(S)CCS)Nc1ccc(Cl)cn1 (stereo unspecified) | 50.7 | 17.8 |  |  |  | 21.6 | 76.5 | 10.8 | 55.8 | 0.89 |  |  | 21.9 | 2.65 | 27.4 |  | 71.2 | 2.34 | 32.4 | growth inhibition (GI) (PC-3 [4]): inactive
O=C(CCCCC1CCSS1)Nc1ccc([N+](=O)[O-])cc1 (stereo unspecified) | 52.6 | 4.83 | 11.9 | 13.9 | 0.33 | 14.4 | 71.3 | 6.67 | 56.7 | 19.9 | 7.45 |  | 0.61 |  | 22.7 | 0.22 | 64.5 |  | 79.6 | 
O=C(O)CCCC[C@@H](S)CCS [DIHYDROLIPOIC ACID] | 0.59 | 5.59 | 9.25 |  | 3.93 | 3.38 | 16.3 |  | 7.84 |  | 12.2 | 8.79 |  |  | 5.02 | 12 | 1.17 | 6.98 |  | inhibition of growth at 0.1 µg/mL (Bel-7402 [20]): 10.4%; EC50 (HT-29): 250 µM
O=C(O)CCCCC1CCSS1 (stereo not drawn) [LIPOIC ACID, ALPHA] | 8.17 | 4.77 | 8.71 |  | 1.05 | 7.18 | 11 |  | 5.72 |  | 4.65 | 8.6 |  | 3.39 | 2.39 | 0.14 | 5.11 | 2.52 |  | inhibition at 10 µM (SCC-9): 50%; EC50 (HT-29): 250 µM; inhibition at 10 µM (SCC-25): 50%; inhibition at 10 µM [21]: 50%; inhibition at 10 µM (FaDu): 50%; LD50 [22]: 2000 mg/kg; Activity (SMMC-7721): 65%
O=C(CCCCC1CCSS1)Nc1ccc(Cl)cc1 (stereo unspecified) | 76.4 | 7.01 | 13 | 18.9 |  | 21.7 | 83.1 | 14.7 | 68.7 | 13.7 | 10.9 | 18.6 | 0.75 |  | 18.3 | 16.4 | 74.8 | 0.64 | 41.2 | inhibition of growth at 0.1 µg/mL (Bel-7402 [20]): 3.37%
O=C(CCCCC1CCSS1)Nc1cccc(C(F)(F)F)c1 (stereo unspecified) | 61.9 | 4.43 |  | 6.27 | 4.76 | 10.9 | 80 | 38.5 | 68.8 | 8.44 | 4.39 | 9.5 | 5.99 | 5 | 6.77 | 0.33 | 74.8 |  | 88.7 | 
COC(=O)CCCCC(CCSC(=O)CCCSC)SC(=O)CCCSC (stereo unspecified) |  |  |  |  |  |  |  |  |  |  |  |  |  |  |  |  |  |  |  | IC50 (DU-145): 400 µM
